Legend:
L1.2hCCR5 cells = assay: Chemotaxis assay; type: cell-based; settings: Homo sapiens; Inhibition of RANTES stimulated chemotaxis
Text: The chemotaxis assay is a functional assay which measures the ability of a non-adherent cell line expressing human CCR5 receptor to migrate across a membrane in response to either test compounds or natural attractant ligand(s) (i.e., RANTES, MIP-1β). Generally, chemotaxis assays monitor the directional movement or migration of a suitable cell (such as a leukocyte (e.g., lymphocyte, eosinophil, basophil)) into or through a barrier (e.g., endothelium, a permeable filter membrane), toward, from a first surface of the barrier toward an opposite second surface containing attractant ligands. Membranes or filters provide convenient barriers to monitor the directional movement or migration of a suitable cell into or through a filter, toward increased levels of an attractant. In some assays, the membrane is coated with a substance to facilitate adhesion, such as ICAM-1, fibronectin or collagen. Such assays provide an in vitro approximation of leukocyte “homing”. […] The filter is then removed and the density of the cells that have migrated to the bottom wells is detected using CyQUANT^R cell proliferation assay kit (Invitrogen) and the Spectra MAX GeminiXS plate reader (Molecular Devices) according to the manufacturers' instructions. Using the fluorescence measurements the percent migration is determined by % migration=[1−(max−obs)/(max−min)]×100. […] This is calculated with Excel Fit.

CCR5 = CCR5 (Homo sapiens, UniProt P51681); assay: Human CCR5 receptor-ligand binding assay (125I RANTES, CHO-Gα16-hCCR5 cells); set-up: expressed in transfected cells; settings: specific 125I RANTES binding, CHO-Gα16-hCCR5 cells; read-out: IC50
Chain of CCR5 (P51681 whole entry): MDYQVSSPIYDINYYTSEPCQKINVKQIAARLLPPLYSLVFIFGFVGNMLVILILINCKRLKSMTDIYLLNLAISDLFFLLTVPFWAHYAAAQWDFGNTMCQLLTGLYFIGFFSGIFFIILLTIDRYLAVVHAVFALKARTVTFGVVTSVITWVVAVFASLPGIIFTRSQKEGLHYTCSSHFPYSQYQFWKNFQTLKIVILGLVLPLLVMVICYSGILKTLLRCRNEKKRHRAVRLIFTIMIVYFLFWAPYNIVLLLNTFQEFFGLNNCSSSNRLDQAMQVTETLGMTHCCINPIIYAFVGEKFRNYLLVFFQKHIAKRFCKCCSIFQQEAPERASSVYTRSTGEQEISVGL
Method: The construct was transfected into CHO-Gα16 cells by using Fugene Reagent (Roche).
Adherent cells in […] tissue culture flask (ca. 90% confluent) were harvested using 1 mM EDTA in PBS (phosphate-buffered saline) without Ca^2+ and Mg^2+. Cells were washed twice with PBS containing no Ca^2+ and Mg^2+.
Eighty μl CHO-Gα16-hCCR5 (1×10^6/mL) cells were added to 96 well plates.
The compound dilutions were made in PBS, 1% BSA. Total reaction volume was 100 μl per well. The test compounds were added to the cells prior to the addition of radioligand.
After incubation, the cells were harvested onto GF/C filter plates using Packard cell harvester. Filters were pretreated with 0.3% PEI/0.2% BSA for 30 min. The filter plate was washed rapidly 5 times with 25 mM HEPES, 500 mM NaCl, 1 mM CaCl2 and 5 mM MgCl2 adjusted to pH 7.1. Plates were dried in oven (70° C.) for 20 min, added with 40 μl scintillation fluid and sealed with Packard TopSeal-A. Packard Top Count was used to measure of the radioactivity for 1 min per well.
Total binding was determined with control wells added with radioisotope and buffer and the non-specific binding was determined using an excess cold RANTES to some of the control wells. Specific binding was determined by subtracting the non-specific form total binding. […] IC50 values were determined using varying concentrations of the test ligand in triplicates and the data was analyzed using GraphPad Prism (GraphPad, San Diego, Calif.).

## CCCCC1CN(C[C@H]2CC[C@@H](OC)CC2)C(=O)OC12CCN(C1(C)CCN(C(=O)c3c(C)ncnc3C)CC1)CC2 (relative stereo) [Compound I-2, 5-Butyl-9-[1-(4,6-dimethyl-pyrimidine-5-carbonyl)-4-methyl-piperidin-4-yl]-3-(cis-4-methoxy-cyclohexylmethyl)-1-oxa-3,9-diaza-spiro[5.5]undecan-2-one]
L1.2hCCR5 cells
  IC50: 237 nM
CCR5
  IC50: 16.2 nM

Reference: patent US7625891B2, “Heterocylic antiviral compounds” (Roche Palo Alto LLC, priority 2007, dated 2009)
